Test results: article PMC9085577, “Discovery of a Potent and Orally Active Dual GPBAR1/CysLT1R Modulator for the Treatment of Metabolic Fatty Liver Disease” (Frontiers in Pharmacology, 2022)

System: liver transcriptome
Assay: AmpliSeq liver transcriptome of HFD-F mice
Type: in vivo
Description: C57BL/6J male mice were fed a high fat diet (HFD) containing 59 KJ% fat plus 1% cholesterol, w/o sugar (ssniff ® EF R/M acc. D12330 mod. 22,7 ME/kg) and fructose (HFD-F) in drinking water (42 g/L), or normal chow diet for 61 days. Food intake was estimated as the difference of weight between the offered and the remnant amount of food at 3-days intervals. The food was provided as pressed pellets and the residual spillage was not considered. After 7 days, HFD-F mice were randomized to receive HFD-F alone or in combination with compound 2 (30 mg/kg/day) by gavage until the end of the experiment. Doses of each agent were chosen according to previously published data. Mice were housed under controlled temperature (22°C) and photoperiods (12:12-h light/dark cycle), allowed unrestricted access to standard mouse chow and tap water. The experimental protocol was approved by the Animal Care and Use Committee of the University of Perugia and by the Italian Minister of Health and Istituto Superiore di Sanità (Italy) and was in agreement with the European guidelines for use of experimental animals (permission n. 583/2017-PR). The general health of the animals was monitored daily by the Veterinarian in the animal facility. At the day of sacrifice, fed mice were deeply anesthetized with a mixture of tiletamine hypochloride and zolazepam hypochloride/xylazine at a dose of 50/5 mg/kg and sacrificed before 12 a.m.
High-quality RNA was extracted from mice livers, using the Direct-zol™ RNA MiniPrep w/Zymo-Spin™ IIC Columns (Zymo Research, Irvine, CA) according to the manufacturer’s instructions. RNA quality and quantity were assessed with the Qubit® RNA HS Assay Kit and a Qubit 3.0 fluorometer (Invitrogen, Carlsbad, CA) followed by agarose gel electrophoresis. Libraries were generated using the Ion AmpliSeq™ Transcriptome Mouse Gene Expression Core Panel and Chef-Ready Kit (Comprehensive evaluation of AmpliSeq transcriptome, a whole transcriptome RNA sequencing methodology) (Thermo Fisher Scientific, Waltham, MA). Briefly, 10 ng of RNA was reverse transcribed with SuperScript™ Vilo™ cDNA Synthesis Kit (Thermo Fisher Scientific, Waltham, MA) before library preparation on the Ion Chef™ instrument (Thermo Fisher Scientific, Waltham, MA). The resulting cDNA was amplified to prepare barcoded libraries using the Ion Code™ PCR Plate, and the Ion AmpliSeq™ Transcriptome Mouse Gene Expression Core Panel (Thermo Fisher Scientific, Waltham, MA), Chef-Ready Kit, according to the manufacturer’s instructions. Barcoded libraries were combined to a final concentration of 100 p.m., and used to prepare Template-Positive Ion Sphere™ (Thermo Fisher Scientific, Waltham, MA) Particles to load on Ion 540™ Chips, using the Ion 540™ Kit-Chef (Thermo Fisher Scientific, Waltham, MA). Sequencing was performed on an Ion S5™ Sequencer with Torrent Suite™ Software v6 (Thermo Fisher Scientific, Waltham, MA). The analyses were performed with a range of fold <−2 and >+2 and a p value <0.05, using Transcriptome Analysis Console Software (version 4.0.1), certified for AmpliSeq analysis (Thermo-Fisher). The transcriptomic data have been deposited as dataset on Mendeley data repository (reference number linking to the repository: Fiorucci, Stefano; Biagioli, Michele; Marchianò, Silvia; Di Giorgio, Cristina (2021), “Discovery of potent dual GPBAR1/CysLT1R modulator for the treatment of metabolic fatty liver disease,” Mendeley Data, V1, doi: 10.17632/6dnrk9fc72.1).

[1] = HFD-F mice, 30 mg/kg/day by gavage
[2] = in comparison to untreated mice

Structure (SMILES): O=C(O)c1cccc(-c2ccc(OCc3ccc4ccccc4n3)cc2)c1 [Compound 2, 4'-(quinolin-2-ylmethoxy)-[1,1′-biphenyl]-3-carboxylic acid]
- liver expression of Alox5 [1]: downregulated
- liver expression of Col1α1 [1]: reversed
- liver expression of Elov5, Mogat1, fabp2, Cd36, Me1, and Cidea [1]: reduced significantly
- liver expression of FXR and its target genes Shp and Bsep [1]: no effect
- liver expression of Fasn [1]: reduced significantly
- liver expression of Fgf21 [1]: decreased
- liver expression of Srepb1f [1]: no effect
- liver expression of αSma [1]: reversed
- liver expression of Cyp7a1 (HFD-F mice, 30 mg/kg/day by gavage, 30 mg/kg/day): potently increased
- number of liver genes modulated compared to HFD-F alone (fold change <−2 or >2, p value < 0.05): 154
- liver expression of Pparα [2]: increased
- liver expression of Pparγ [2]: increased
- 1810011O10Rik transcript Avg (log2) (liver, HFD + compound 2): 5.22 log2
- 2310001K24Rik transcript Avg (log2) (liver, HFD + compound 2): 2.22 log2
- 2310039H08Rik transcript Avg (log2) (liver, HFD + compound 2): 3.92 log2
- 4833423E24Rik transcript Avg (log2) (liver, HFD + compound 2): 1.1 log2
- 6430573F11Rik transcript Avg (log2) (liver, HFD + compound 2): 1.17 log2
- AW549542 transcript Avg (log2) (liver, HFD + compound 2): 6.06 log2
- Abcb1a transcript Avg (log2) (liver, HFD + compound 2): 2.24 log2
- Acod1 transcript Avg (log2) (liver, HFD + compound 2): 0.24 log2
- Acot3 transcript Avg (log2) (liver, HFD + compound 2): 1.85 log2
- Adam8 transcript Avg (log2) (liver, HFD + compound 2): 0.63 log2
- Adam11 transcript Avg (log2) (liver, HFD + compound 2): 7.79 log2
- Anxa2 transcript Avg (log2) (liver, HFD + compound 2): 4.37 log2
- Apcs transcript Avg (log2) (liver, HFD + compound 2): 6.13 log2
- Arntl transcript Avg (log2) (liver, HFD + compound 2): 1.77 log2
- Arsg transcript Avg (log2) (liver, HFD + compound 2): 4.36 log2
- Atp1a3 transcript Avg (log2) (liver, HFD + compound 2): 0.63 log2
- Aurka transcript Avg (log2) (liver, HFD + compound 2): 0.66 log2
- Avpr1a transcript Avg (log2) (liver, HFD + compound 2): 3.76 log2
- Bcat1 transcript Avg (log2) (liver, HFD + compound 2): 0 log2
- C920009B18Rik transcript Avg (log2) (liver, HFD + compound 2): 0.43 log2
- Cabyr transcript Avg (log2) (liver, HFD + compound 2): 3.88 log2
- Capn11 transcript Avg (log2) (liver, HFD + compound 2): 2.07 log2
- Ccl2 transcript Avg (log2) (liver, HFD + compound 2): 2.2 log2
- Ccl3 transcript Avg (log2) (liver, HFD + compound 2): 1.68 log2
- Ccl4 transcript Avg (log2) (liver, HFD + compound 2): 0.13 log2
- Ccl7 transcript Avg (log2) (liver, HFD + compound 2): 0.8 log2
- Ccl9 transcript Avg (log2) (liver, HFD + compound 2): 5.17 log2
- Cd9 transcript Avg (log2) (liver, HFD + compound 2): 5.07 log2
- Cd14 transcript Avg (log2) (liver, HFD + compound 2): 2.99 log2
- Cd36 transcript Avg (log2) (liver, HFD + compound 2): 4.05 log2
- Cd63 transcript Avg (log2) (liver, HFD + compound 2): 2.97 log2
- Cdk1 transcript Avg (log2) (liver, HFD + compound 2): 1.66 log2
- Cdkl2 transcript Avg (log2) (liver, HFD + compound 2): 1.24 log2
- Cdkn1a transcript Avg (log2) (liver, HFD + compound 2): 1.4 log2
- Cdkn3 transcript Avg (log2) (liver, HFD + compound 2): 0.2 log2
- Ces2b transcript Avg (log2) (liver, HFD + compound 2): 4.12 log2
- Cetn4 transcript Avg (log2) (liver, HFD + compound 2): 1.14 log2
- Chka transcript Avg (log2) (liver, HFD + compound 2): 4.93 log2
- Chrna4 transcript Avg (log2) (liver, HFD + compound 2): 2.32 log2
- Cidea transcript Avg (log2) (liver, HFD + compound 2): 0.78 log2
- Cidec transcript Avg (log2) (liver, HFD + compound 2): 5.15 log2
- Cirbp transcript Avg (log2) (liver, HFD + compound 2): 6.69 log2
- Ckap2 transcript Avg (log2) (liver, HFD + compound 2): 0.6 log2
- Clec4e transcript Avg (log2) (liver, HFD + compound 2): 0.33 log2
- Clec4d transcript Avg (log2) (liver, HFD + compound 2): 0.27 log2
- Col27a1 transcript Avg (log2) (liver, HFD + compound 2): 6.19 log2
- Csf3 transcript Avg (log2) (liver, HFD + compound 2): 0.06 log2
- Cxcl2 transcript Avg (log2) (liver, HFD + compound 2): 1 log2
- Cyp1a2 transcript Avg (log2) (liver, HFD + compound 2): 11.93 log2
- Cyp2a5 transcript Avg (log2) (liver, HFD + compound 2): 10.52 log2
- Cyp7a1 transcript Avg (log2) (liver, HFD + compound 2): 9.39 log2
- Cyp17a1 transcript Avg (log2) (liver, HFD + compound 2): 4.11 log2
- D17H6S56E-5 transcript Avg (log2) (liver, HFD + compound 2): 1.96 log2
- Dbp transcript Avg (log2) (liver, HFD + compound 2): 7.05 log2
- Defb1 transcript Avg (log2) (liver, HFD + compound 2): 1.19 log2
- Derl2 transcript Avg (log2) (liver, HFD + compound 2): 4.75 log2
- Dhrs9 transcript Avg (log2) (liver, HFD + compound 2): 1.65 log2
- Dtx4 transcript Avg (log2) (liver, HFD + compound 2): 2.62 log2
- Dusp8 transcript Avg (log2) (liver, HFD + compound 2): 1.5 log2
- Egr1 transcript Avg (log2) (liver, HFD + compound 2): 3.52 log2
- Ell transcript Avg (log2) (liver, HFD + compound 2): 5.75 log2
- Elovl3 transcript Avg (log2) (liver, HFD + compound 2): 8.94 log2
- Elovl5 transcript Avg (log2) (liver, HFD + compound 2): 9.72 log2
- Ephb2 transcript Avg (log2) (liver, HFD + compound 2): 0.78 log2
- Epm2aip1 transcript Avg (log2) (liver, HFD + compound 2): 2.63 log2
- Fam57a transcript Avg (log2) (liver, HFD + compound 2): 2.02 log2
- Fgf21 transcript Avg (log2) (liver, HFD + compound 2): 2.1 log2
- Fxyd2 transcript Avg (log2) (liver, HFD + compound 2): 0.72 log2
